Assay results reported in publication PMC3577359 (Biochemistry, 2013).
Where “and” joins values, the source holds several entries; their conditions need not be identical. Identical values can stand only once. Like-named read-outs stand apart in the source and are kept apart here.

How the values were obtained:
[1] = system: holo–AusA reductase domain; type: biochemical, Staphylococcus aureus; settings: for NADPH Consumption kobs / Aureusimine-A Formation kobs: ATP; for Aureusimine-A Formation kobs: LC-MS
holo–AusA = holo–AusA (Staphylococcus aureus, UniProt A0A0H3JX00); settings: for kcat/KM, fold lower than that of L-Tyr: fixed saturating L-Val, ATP, NADPH
[2] = system: Nc1ccc(C[C@H](N)C(=O)O)cc1; assay: ATP–PPi exchange kinetic parameters of AusA, A2 domain; type: biochemical, Staphylococcus aureus; settings: other: varied amino acid, non-varied ATP 3 mM; apparent; pH 8.0; 37.0 °C
[3] = system: Nc1ncnc2c1ncn2[C@@H]1O[C@H](COP(=O)(O)OP(=O)(O)OP(=O)(O)O)[C@@H](O)[C@H]1O; assay: as above; type: biochemical, Staphylococcus aureus; settings: other: varied ATP, non-varied L-Phe 30 mM; pH 8.0; 37.0 °C
[4] = system: N[C@@H](Cc1ccc(O)cc1)C(=O)O; assay: as above; type: biochemical, Staphylococcus aureus; settings: other: varied amino acid, non-varied ATP 3 mM; apparent; pH 8.0; 37.0 °C
N[C@@H](Cc1ccccc1)C(=O)O = assay: as above; type: biochemical, Staphylococcus aureus; settings: other: varied amino acid, non-varied ATP 3 mM; apparent; pH 8.0; 37.0 °C
CC(C)C[C@H](N)C(=O)O = assay: ATP–PPi exchange kinetic parameters of AusA, A1/A2 aggregate; type: biochemical, Staphylococcus aureus; settings: other: non-varied ATP 3 mM; aggregate of A1 and A2; pH 8.0; 37.0 °C
calpain = settings: cited from earlier work
[5] = cited from earlier work
AusA A1 domain = AusA A1 domain (Staphylococcus aureus, UniProt A0A0H3JX00); assay: ATP–PPi exchange kinetic parameters of AusA, A1 domain; type: biochemical
CC[C@H](C)[C@H](N)C(=O)O = assay: as above; type: biochemical, Staphylococcus aureus; settings: other: varied amino acid, non-varied ATP 3 mM; apparent; pH 8.0; 37.0 °C
CC(C)[C@H](N)C(=O)O = assay: as above; type: biochemical, Staphylococcus aureus; settings: other: varied amino acid, non-varied ATP 3 mM; apparent; pH 8.0; 37.0 °C
A1–T1 = A1–T1 (Staphylococcus aureus, UniProt A0A0H3JX00); assay: ATP–PPi exchange assay, inhibition of A1–T1 didomain; type: biochemical
A2–T2–R = A2–T2–R (Staphylococcus aureus, UniProt A0A0H3JX00); assay: ATP–PPi exchange assay, inhibition of A2–T2–R tridomain; type: biochemical
AusA (A1–T1–C–A2–T2–R) = AusA (A1–T1–C–A2–T2–R) (Staphylococcus aureus, UniProt A0A0H3JX00); type: biochemical
AusA A1/A2 = AusA A1/A2 (Staphylococcus aureus, UniProt A0A0H3JX00); assay: ATP–PPi exchange kinetic parameters of AusA, A1/A2 aggregate; type: biochemical
[6] = system: Nc1ncnc2c1ncn2[C@@H]1O[C@H](COP(=O)(O)OP(=O)(O)OP(=O)(O)O)[C@@H](O)[C@H]1O; assay: purified protein, by the assay type; settings: other: ATP varied, pH 8.0
AusA A2 domain = AusA A2 domain (Staphylococcus aureus, UniProt A0A0H3JX00); assay: ATP–PPi exchange kinetic parameters of AusA, A2 domain; type: biochemical
[7] = substrates L-Val, NADPH (no L-Tyr)

## NADPH
[1]; [7]
  NADPH Consumption kobs: 0 min⁻¹
[1]; substrates L-Val, L-Tyr, NADPH, 80 nM holo–AusA, ambient temperature
  NADPH Consumption kobs: 2.01 min⁻¹ and 2.01 ± 0.05 min⁻¹
holo–AusA; at 0.1 mM NADPH, L-Val, L-Tyr, ATP non-varied
  kobs: 0.39 min⁻¹

## N[C@@H](Cc1ccccc1)C(=O)O [L-Phe]
holo–AusA
  kcat/KM, fold lower than that of L-Tyr: 2.8 fold

## AusA A2 domain (Staphylococcus aureus subsp. aureus Mu50)
[2]
  Km: 31 ± 1 mM
  kcat: 1.53 ± 0.0333 s⁻¹
  kcat/Km: 49 ± 2 M⁻¹ s⁻¹
[3]
  Km: 3.0 ± 0.5 mM
  kcat: 1.05 ± 0.117 s⁻¹
  kcat/Km: 350 ± 70 M⁻¹ s⁻¹
[4]
  Km: 1.0 ± 0 mM
  kcat: 2.15 ± 0.0167 s⁻¹
  kcat/Km: 2150 ± 17 M⁻¹ s⁻¹
N[C@@H](Cc1ccccc1)C(=O)O
  Km: 2.1 ± 0.1 mM
  kcat: 0.675 ± 0.01 s⁻¹
  kcat/Km: 321 ± 16 M⁻¹ s⁻¹

## AusA A1/A2 (Staphylococcus aureus subsp. aureus Mu50)
CC(C)C[C@H](N)C(=O)O
  Km: 24 ± 3 mM
  kcat: 0.248 ± 0.0167 s⁻¹
  kcat/Km: 10 M⁻¹ s⁻¹ and 10.3 M⁻¹ s⁻¹

## CC(C)c1ncc(Cc2ccccc2)[nH]c1=O [compound 2, aureusimine-B]
calpain
  calpain inhibition activity: ~ 1 μM
[5]
  antibacterial activity: no antibacterial activity was observed

## CC[C@H](C)[C@H](N)C(=O)O [L-Ile]
AusA A1 domain; in the presence of Phe-AMS
  exchange rate, fold lower than with L-Val: ~10 fold

## AusA A1 domain (Staphylococcus aureus subsp. aureus Mu50)
CC[C@H](C)[C@H](N)C(=O)O
  Km: 11.9 ± 0.9 mM
  kcat: 0.565 ± 0.0183 s⁻¹
  kcat/Km: 47 ± 4 M⁻¹ s⁻¹
CC(C)[C@H](N)C(=O)O
  Km: 3.3 ± 0.1 mM
  kcat: 7.683 ± 0.05 s⁻¹
  kcat/Km: 2330 ± 72 M⁻¹ s⁻¹

## Nc1ncnc2c1ncn2[C@@H]1O[C@H](COS(=O)(=O)NC(=O)[C@@H](N)Cc2ccccc2)[C@@H](O)[C@H]1O [Phe-AMS, 5′-O-[N-(phenylalanyl)sulfamoyl]adenosine]
A1–T1
  Ki: > 100 µM
A1–T1; up to 100 μM
  inhibition of A1–T1: little inhibition
A2–T2–R
  Ki: < 0.004 µM
  selectivity factor (A2 over A1–T1): > 10^4
[1]; L-Tyr reaction, data not shown
  consumption of NADPH with the A2-specific inhibitor added: not observed
AusA (A1–T1–C–A2–T2–R)
  Ki: 0.0008 ± 0.0005 µM
AusA (A1–T1–C–A2–T2–R); 100 μM Phe-AMS, with L-Phe, L-4Aph, L-Tyr and L-Met
  effect on amino acid-dependent ATP–PPi exchange activity: eliminates the enzymatic activity

## CC(C)c1ncc(Cc2ccc(O)cc2)[nH]c1=O [compound 1, aureusimine-A]
[1]; substrates L-Tyr, NADPH (no L-Val)
  Aureusimine-A Formation kobs: 0 min⁻¹
[1]; [7]
  Aureusimine-A Formation kobs: 0 min⁻¹
[1]; substrates L-Val, L-Tyr, NADPH, listed as Aureusimine-A
  Aureusimine-A Formation kobs: 0.28 ± 0.01 min⁻¹
[1]; substrates L-Val, L-Tyr, NADPH, listed as aureusimine-A
  Aureusimine-A Formation kobs: 0.28 min⁻¹

## CC(C)C[C@H](N)C(=O)O [L-Leu]
AusA A1/A2
  kcat/KM, fold less than the best substrates: more than 200 fold
holo–AusA
  kcat/KM, fold lower than that of L-Tyr: 302 fold

## CC(C)[C@H](N)C(=O)NS(=O)(=O)OC[C@H]1O[C@@H](n2cnc3c(N)ncnc32)[C@H](O)[C@@H]1O [Val-AMS, 5′-O-[N-(valinyl)sulfamoyl]adenosine]
A1–T1
  Ki: 0.063 ± 0.005 µM
  selectivity factor Ki(A2-T2-R)/Ki(A1-T1): 158
A2–T2–R
  Ki: 10 µM
AusA (A1–T1–C–A2–T2–R)
  Ki: 0.044 ± 0.007 µM
AusA (A1–T1–C–A2–T2–R); 100 μM Val-AMS, with L-Tyr, L-Phe, L-4Aph and L-Leu, off-target inhibition of A2
  activity reduction relative to the uninhibited control: more than 2 fold
AusA (A1–T1–C–A2–T2–R); 100 μM Val-AMS, with L-Val, L-Ile, L-Cle, L-Ala, L-Cys, L-Tle and L-Met
  effect on amino acid-dependent ATP–PPi exchange activity: eliminated

## holo–AusA (Staphylococcus aureus subsp. aureus Mu50)
[6]; L-Leu as the non-varied amino acid
  Km: 9.7 mM
[6]; L-Tyr as the non-varied amino acid
  Km: 0.1 mM

## CC(C)[C@H](N)C(=O)O [L-Val, L-Valine]
AusA A1 domain
  kcat/KM, fold greater than L-Ile: 49 fold

## NC(=O)C1=CN([C@@H]2O[C@H](COP(=O)(O)OP(=O)(O)OC[C@H]3O[C@@H](n4cnc5c(N)ncnc54)[C@H](O)[C@@H]3O)[C@@H](O)[C@H]2O)C=CC1 [NADH]
[1]; data not shown
  cofactor use by AusA: unable to use

## Nc1ccc(C[C@H](N)C(=O)O)cc1 [L-4Aph, L-4-aminophenylalanine]
AusA A2 domain
  decrease in kcat relative to L-Tyr: 30%
  increase in KM relative to L-Tyr: 31 fold
holo–AusA
  kcat/KM, fold lower than that of L-Tyr: 17 fold
